In one data set the test system is SARS-CoV-2 PL^pro. The settings on record: in vitro SARS-CoV-2 PL^pro; cited from earlier work.
The nature of the next data set: in vitro. The settings on record: human, CC50, U2-OS ACE2 GFP cells.
Data set [1] concerns SARS-CoV-2. The settings on record: A549 + ACE2 cells, pretreatment; cited from earlier work.
Data set [2] deals with SARS-CoV-2 strain BetaCoV/France/IDF0372/2020. The data set can be described thus: microbe, parasite or virus in culture. As to conditions: Severe acute respiratory syndrome coronavirus 2, U2OS.
Data set [3] deals with SARS-CoV-2. The settings on record: SARS-CoV-2-infected mice; cited from earlier work.
In data set [4] the test system is SARS-CoV-2. As to conditions: cited from earlier work.

Consider three compounds from paper PMC10620940 (ACS Omega, 2023).

Structures are written as SMILES. Like-named read-outs stand apart in the source and are kept apart here.

Regarding `COc1ccc2nc3cc(Cl)ccc3c(Nc3cc(CN4CCCC4)c(O)c(CN4CCCC4)c3)c2n1` [7g, pyronaridine], the IC50 (usually the concentration needed to halve the response being measured) is 1.8 µM in the data set with SARS-CoV-2 PL^pro, 0.23 µM in the data set on SARS-CoV-2 [1] and 0.42 µM in data set [2]. In addition, the half-maximal cytotoxic concentration (CC50) (commonly the concentration that lowers cell viability or growth by half) in the data set “in vitro” is 4.7 µM. Moreover, the “viral load in the lungs” value with SARS-CoV-2 [3] is given as “reduces viral load”.

In the case of `CCN(CC)CCCC(C)Nc1c2ccc(Cl)cc2nc2ccc(OC)cc12` (centres unmarked) [quinacrine], the values for the 50% inhibitory concentration (IC50) (with SARS-CoV-2 [1]; in data set [2]) were 0.19 µM and 2.57 µM, respectively.

Regarding `CCC(CC)COC(=O)[C@H](C)N[P@](=O)(OC[C@H]1O[C@@](C#N)(c2ccc3c(N)ncnn23)[C@H](O)[C@@H]1O)Oc1ccccc1` [remdesivir], the IC50 in the data set with SARS-CoV-2 [4] is 0.02 to 0.05 µM.
